Source: patent publication US20240148744A1 (Celgene Corporation, priority 2021, published 2024)
Like-named read-outs stand apart in the source and are kept apart here.

Legend:
Dirofilaria immitis = assay: Heartworm screen Dirofilaria immitis (stage DiMF/DiL4 not specified in the tables); type: cell-based; settings: read-out: D. immitis Activity class
[1] = system: Onchocerca gutturosa adult male worms; assay: Onchocerca gutturosa in vitro screening model: adult worm motility score and MTT/formazan viability; type: cell-based
[2] = read-out: O. gutt Activity class

Structure (SMILES) | IC50 (Dirofilaria immitis) [nM] | IC50 [1, 2] [nM] | IC50 ([1]; read-out: O. gutt Activity class, in vitro motility) [nM]
Cc1ccc(S(=O)(=O)Nc2cccc3cccnc23)cn1 [Compound 157, 6-methyl-N-(quinolin-8-yl)pyridine-3-sulfonamide] | 500 to 5000 | 500 to 5000 | 
O=S(=O)(Nc1cccc2cccnc12)c1ccc(-c2ccccc2)nc1 [Compound 189, 6-phenyl-N-(quinolin-8-yl)pyridine-3-sulfonamide] | 500 to 5000 | 200 to 500 | 
Nc1ncccc1S(=O)(=O)Nc1cccc2cccnc12 [Compound 151, 2-amino-N-(quinolin-8-yl)pyridine-3-sulfonamide] | 500 to 5000 | 500 to 5000 | 
O=S(=O)(Nc1cccc2cccnc12)c1cc2ccccc2cn1 [Compound 270, N-(quinolin-8-yl)isoquinoline-3-sulfonamide] | 200 to 500 | < 200 | 
Cc1ncc(S(=O)(=O)Nc2cccc3cccnc23)cc1Cl [Compound 180, 5-chloro-6-methyl-N-(quinolin-8-yl)pyridine-3-sulfonamide] | 500 to 5000 | 500 to 5000 | 
Cc1nc(Cl)ccc1S(=O)(=O)Nc1cccc2cccnc12 [Compound 179, 6-chloro-2-methyl-N-(quinolin-8-yl)pyridine-3-sulfonamide] | 500 to 5000 | < 200 | 
O=S(=O)(Nc1cccc2cccnc12)c1nccn1C1CC1(F)F (centres unmarked) [Compound 174, 1-(2,2-difluorocyclo-propyl)-N-(quinolin-8-yl)-1H-imidazole-2-sulfonamide] | 200 to 500 | < 200 | 
CCn1ccnc1S(=O)(=O)Nc1cc(OC)cc2cccnc12 [Compound 117, 1-ethyl-N-(6-methoxyquin-olin-8-yl)-1H-imidazole-2-sulfonamide] | 200 to 500 | 500 to 5000 | 
O=S(=O)(Nc1c(Cl)ccc2cccnc12)c1ncccc1F [Compound 98, N-(7-chloro-quinolin-8-yl)-3-fluoro-pyridine-2-sulfonamide] | 500 to 5000 | < 200 | 
Cc1ccc(S(=O)(=O)Nc2cccc3cccnc23)o1 [Compound 276, 5-methyl-N-(quinolin-8-yl)furan-2-sulfonamide] | 200 to 500 | 200 to 500 | 
Cc1cnc(C)c(S(=O)(=O)Nc2c(Cl)ccc3cccnc23)n1 [Compound 53, N-(7-chloro-quinolin-8-yl)-3,6-dimethyl-pyrazine-2-sulfonamide] | 500 to 5000 | 500 to 5000 | 
O=S(=O)(Nc1cccc2cccnc12)c1cc(F)ccn1 [Compound 160, 4-fluoro-N-(quinolin-8-yl)pyridine-2-sulfonamide] | 500 to 5000 | < 200 | 
Cc1cccnc1S(=O)(=O)Nc1cccc2c(C(F)(F)F)ccnc12 [Compound 13, 3-methyl-N-(4-(trifluoro-methyl)quin-olin-8-yl)pyr-idine-2-sulfonamide] | 200 to 500 | < 200 | 
CCn1ccnc1S(=O)(=O)Nc1cccc2cc(Cl)cnc12 [Compound 116, N-(3-chloro-quinolin-8-yl)-1-ethyl-1H-imidazole-2-sulfonamide] | 200 to 500 | 200 to 500 | 
Cc1cc(C#N)cc(S(=O)(=O)Nc2cccc3cccnc23)n1 [Compound 167, 4-cyano-6-methyl-N-(quinolin-8-yl)pyridine-2-sulfonamide] | 500 to 5000 | 200 to 500 | 
O=S(=O)(Nc1cccc2cccnc12)c1nccn1C1CC1C(F)(F)F (centres unmarked) [Compound 171, N-(quinolin-8-yl)-1-(2-(trifluoromethyl)cyclopropyl)-1H-imidazole-2-sulfonamide] | 200 to 500 | < 200 | 
CC(C)Oc1ccc(S(=O)(=O)Nc2cccc3cccnc23)nc1 [Compound 242, 5-isopropoxy-N-(quinolin-8-yl)pyridine-2-sulfonamide] | 200 to 500 | < 200 | 
Cc1cccnc1S(=O)(=O)Nc1c(OCC2CC2)ccc2cccnc12 [Compound 16, N-(7-(cyclo-propylmeth-oxy)quinolin-8-yl)-3-meth-ylpyridine-2-sulfonamide] | < 200 | 500 to 5000 | 
CCn1cc(C)nc1S(=O)(=O)Nc1cccc2cccnc12 [Compound 191, 1-ethyl-4-methyl-N-(quinolin-8-yl)-1H-imidazole-2-sulfonamide] | 200 to 500 | < 200 | 
CCn1ccc(S(=O)(=O)Nc2cccc3cccnc23)n1 [Compound 193, 1-ethyl-N-(quinolin-8-yl)-1H-pyrazole-3-sulfonamide] | 500 to 5000 | 200 to 500 | 
Cc1ncc(Cl)cc1S(=O)(=O)Nc1cccc2cccnc12 [Compound 181, 5-chloro-2-methyl-N-(quinolin-8-yl)pyridine-3-sulfonamide] | 200 to 500 | 500 to 5000 | 
COc1cnc2c(NS(=O)(=O)c3ccc(C)cn3)cccc2c1 [Compound 121, N-(3-methoxy-quinolin-8-yl)-5-methylpyr-idine-2-sulfon-amide] | 500 to 5000 | < 200 | 
O=S(=O)(Nc1ccc(F)c2cccnc12)c1ncccc1C1CC1 [Compound 48, 3-cyclo-propyl-N-(5-fluoroquin-olin-8-yl)-pyridine-2-sulfonamide] | 500 to 5000 | < 200 | 

Structure (SMILES) | IC50 (Dirofilaria immitis) [nM] | IC50 [1, 2] [nM] | IC50 ([1]; read-out: O. gutt Activity class, in vitro motility) [nM]
CN(C)c1nccnc1S(=O)(=O)Nc1c(Cl)ccc2cccnc12 [Compound 76, N-(7-chloro-quinolin-8-yl)-3-(dimethyl-amino)pyr-azine-2-sulfonamide] | 500 to 5000 | 500 to 5000 | 
CCn1ccnc1S(=O)(=O)Nc1c(OC)ccc2cccnc12 [Compound 84, 1-ethyl-N-(7-methoxyquin-olin-8-yl)-1H-imidazole-2-sulfonamide] | 200 to 500 | < 200 | 
Cc1cccnc1S(=O)(=O)Nc1cccc2c(C)ccnc12 [Compound 15, 3-methyl-N-(4-methyl-quinolin-8-yl)pyridine-2-sulfonamide] | 500 to 5000 | < 200 | 
Cc1ccc(S(=O)(=O)Nc2c(C)ccc3cccnc23)nc1 [Compound 112, 5-methyl-N-(7-methyl-quinolin-8-yl)-pyridine-2-sulfonamide] | 500 to 5000 | 200 to 500 | 
Cc1cccnc1S(=O)(=O)Nc1cccc2c(OCC3CC3)ccnc12 [Compound 28, N-(4-(cyclo-propylmeth-oxy)quinolin-8-yl)-3-meth-ylpyridine-2-sulfonamide] | 500 to 5000 | 500 to 5000 | 
N#Cc1ccc(-c2cccc(S(=O)(=O)Nc3cccc4cccnc34)n2)cc1 [Compound 178, 6-(4-cyanophenyl)-N-(quinolin-8-yl)pyridine-2-sulfonamide] | 500 to 5000 | < 200 | 
Cc1ccnc(S(=O)(=O)Nc2cccc3cccnc23)c1 [Compound 265, 4-methyl-N-(quinolin-8-yl)pyridine-2-sulfonamide] | 200 to 500 |  | < 200
Cc1cccnc1S(=O)(=O)Nc1c(Cl)ccc2cccnc12 [Compound 100, N-(7-chloro-quinolin-8-yl)-3-methylpyr-idine-2-sulfon-amide] | 500 to 5000 | < 200 | 
CCn1ccnc1S(=O)(=O)Nc1cccc2cc(F)cnc12 [Compound 109, 1-ethyl-N-(3-fluoroquinolin-8-yl)-1H-imidazole-2-sulfonamide] | 200 to 500 | < 200 | 
O=S(=O)(Nc1cccc2cccnc12)c1cccc(C(F)(F)F)n1 [Compound 156, N-(quinolin-8-yl)-6-(trifluoromethyl) pyridine-2-sulfonamide] | 500 to 5000 | < 200 | 
Cc1cccnc1S(=O)(=O)Nc1cccc2ccc(C3CC3)nc12 [Compound 26, N-(2-cyclo-propylquin-olin-8-yl)-3-methylpyr-idine-2-sulfonamide] | 500 to 5000 | 500 to 5000 | 
Cc1ccc(S(=O)(=O)Nc2cccc3cc(F)cnc23)nc1 [Compound 87, N-(3-fluoro-quinolin-8-yl)-5-methyl-pyridine-2-sulfonamide] | 200 to 500 | < 200 | 
O=S(=O)(Nc1cccc2cccnc12)c1ccccn1 [Compound 280, N-(quinolin-8-yl)pyridine-2-sulfonamide] | 200 to 500 | 500 to 5000 | 
N#CCc1cccc(S(=O)(=O)Nc2cccc3cccnc23)n1 [Compound 150, 6-(cyanomethyl)-N-(quinolin-8-yl)pyridine-2-sulfonamide] | 500 to 5000 | 200 to 500 | 
Cc1cccc(S(=O)(=O)Nc2cccc3cccnc23)n1 [Compound 272, 6-methyl-N-(quinolin-8-yl)pyridine-2-sulfonamide] | 500 to 5000 | < 200 | 
CC(C)(C)c1ccc(S(=O)(=O)Nc2cccc3cccnc23)cn1 [Compound 159, 6-tert-butyl-N-(quinolin-8-yl)pyridine-3-sulfonamide] | 200 to 500 | < 200 | 
Cc1nc(S(=O)(=O)Nc2cccc3cccnc23)ccc1Cl [Compound 184, 5-chloro-6-methyl-N-(quinolin-8-yl)pyridine-2-sulfonamide] | 200 to 500 | < 200 | 
COc1nccc(S(=O)(=O)Nc2cccc3cccnc23)n1 [Compound 197, 2-methoxy-N-(quinolin-8-yl)pyrimidine-4-sulfonamide] | 500 to 5000 | 200 to 500 | 
O=S(=O)(Nc1cccc2cccnc12)c1cnccn1 [Compound 271, N-(quinolin-8-yl)pyrazine-2-sulfonamide] | 500 to 5000 | < 200 | 
CC(C)n1nccc1S(=O)(=O)Nc1c(Cl)ccc2cccnc12 [Compound 77, N-(7-chloro-quinolin-8-yl)-1-iso-propyl-1H-pyrazole-5-sulfonamide] | 500 to 5000 | 200 to 500 | 
Cc1cc(S(=O)(=O)Nc2cccc3cccnc23)cc(C)n1 [Compound 186, 2,6-dimethyl-N-(quinolin-8-yl)pyridine-4-sulfonamide] | 500 to 5000 | 200 to 500 | 
CCn1ccnc1S(=O)(=O)Nc1cc(F)cc2cccnc12 [Compound 107, 1-ethyl-N-(6-fluoroquinolin-8-yl)-1H-imidazole-2-sulfonamide] | 200 to 500 | < 200 | 
CC(C)c1cccnc1S(=O)(=O)Nc1c(Cl)ccc2cccnc12 [Compound 68, N-(7-chloro-quinolin-8-yl)-3-iso-propylpyr-idine-2-sulfonamide] | 500 to 5000 | < 200 | 
